In this assay the target is T1, purified human HDAC6 (Homo sapiens, UniProt Q9UBN7).
T1 construct: purchased BPS Bioscience 5006
T1 sequence (Q9UBN7 1-1215): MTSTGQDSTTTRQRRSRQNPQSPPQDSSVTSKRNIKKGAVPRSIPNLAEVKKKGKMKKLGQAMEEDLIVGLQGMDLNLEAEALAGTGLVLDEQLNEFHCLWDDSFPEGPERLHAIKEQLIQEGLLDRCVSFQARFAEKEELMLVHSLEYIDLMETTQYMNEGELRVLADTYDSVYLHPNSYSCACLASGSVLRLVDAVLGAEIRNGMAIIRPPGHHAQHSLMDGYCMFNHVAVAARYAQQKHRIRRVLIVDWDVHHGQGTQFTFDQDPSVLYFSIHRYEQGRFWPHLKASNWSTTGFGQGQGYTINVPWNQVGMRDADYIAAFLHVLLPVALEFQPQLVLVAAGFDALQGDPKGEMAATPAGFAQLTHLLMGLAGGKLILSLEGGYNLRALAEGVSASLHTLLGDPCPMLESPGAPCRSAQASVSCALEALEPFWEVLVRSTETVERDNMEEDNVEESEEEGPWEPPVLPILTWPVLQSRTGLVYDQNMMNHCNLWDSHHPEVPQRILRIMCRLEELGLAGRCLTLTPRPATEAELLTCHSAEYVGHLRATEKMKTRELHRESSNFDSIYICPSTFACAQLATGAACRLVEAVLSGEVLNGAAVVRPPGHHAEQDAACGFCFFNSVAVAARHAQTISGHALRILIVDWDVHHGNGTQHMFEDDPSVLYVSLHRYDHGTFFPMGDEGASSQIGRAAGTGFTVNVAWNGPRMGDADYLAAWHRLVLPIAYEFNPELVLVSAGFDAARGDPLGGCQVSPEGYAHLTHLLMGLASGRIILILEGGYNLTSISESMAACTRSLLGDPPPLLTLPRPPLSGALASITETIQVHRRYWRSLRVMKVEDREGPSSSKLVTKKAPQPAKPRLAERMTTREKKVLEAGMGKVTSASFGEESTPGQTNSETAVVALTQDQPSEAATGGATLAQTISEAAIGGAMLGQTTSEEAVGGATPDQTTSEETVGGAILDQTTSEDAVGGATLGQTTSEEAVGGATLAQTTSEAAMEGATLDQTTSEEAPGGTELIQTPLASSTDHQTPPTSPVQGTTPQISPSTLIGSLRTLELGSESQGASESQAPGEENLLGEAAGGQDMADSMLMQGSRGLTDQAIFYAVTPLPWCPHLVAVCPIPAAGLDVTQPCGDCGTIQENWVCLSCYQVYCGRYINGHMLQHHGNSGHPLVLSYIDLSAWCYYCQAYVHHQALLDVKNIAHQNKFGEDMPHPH
The assay is described as follows: HDAC6 Enzyme Assay. Type of assay: biochemical. Conditions: enzyme inhibition, substrate Ac-Arg-Gly-Lys(Ac)-AMC, 1 hour at 30° C. The method, then:
To measure the inhibition of HDAC6 activity, purified human HDAC6 (BPS Bioscience; Cat. No. 5006) is incubated with substrate Ac-Arg-Gly-Lys(Ac)-AMC peptide (Bachem Biosciences; Cat. No. I-1925) for 1 hour at 30° C. in the presence of test compounds or vehicle DMSO control. The reaction is stopped with the HDAC inhibitor trichostatin A (Sigma; Cat. No. T8552) and the amount of Arg-Gly-Lys-AMC generated is quantitated by digestion with trypsin (Sigma; Cat. No. T1426) and subsequent measurement of the amount of AMC released using a fluorescent plate reader (Pherastar; BMG Technologies) set at Ex 340 nm and Em 460 nm. Concentration response curves are generated by calculating the fluorescence increase in test compound-treated samples relative to DMSO-treated controls, and enzyme inhibition (IC50) values are determined from those curves.
Broadly, the IC50 is the midpoint of a concentration-inhibition curve. The low end stands for inhibition by little substance, the high end for a need for much substance. For the compound `O=C(NO)c1cc2c(s1)CN(C(=O)c1cccc3cccnc13)CC2` [Compound 99, N-hydroxy-6-(quinoline-8-carbonyl)-4,5,6,7-tetrahydrothieno[2,3-c]pyridine-2-carboxamide], the IC50 was less than 50 nM. Next, `COc1cc(OC)nc(C(=O)N2CCc3cc(C(=O)NO)sc3C2)n1` [Compound 100, 6-[(4,6-dimethoxypyrimidin-2-yl)carbonyl]-N-hydroxy-4,5,6,7-tetrahydrothieno[2,3-c]pyridine-2-carboxamide]: 50 to 100 nM; `Cc1ccc(CNC(=O)N2CCc3cc(C(=O)NO)sc3C2)cc1` [Compound 103, N2-hydroxy-N-6-(4-methylbenzyl)-4,5-dihydrothieno[2,3-c]pyridine-2,6(5H)-dicarboxamide]: less than 50 nM.

With `Cc1onc(-c2ccccc2)c1C(=O)N1CCc2cc(C(=O)NO)sc2C1` [Compound 107, N-hydroxy-6-[(5-methyl-3-phenylisoxazol-4-yl)carbonyl]-4,5,6,7-tetrahydrothieno[2,3-c]pyridine-2-carboxamide], the IC50 was less than 50 nM.

As to `COc1ccc(CN2CCc3cc(C(=O)NO)sc3C2)cc1` [Compound 111, N-hydroxy-6-(4-methoxybenzyl)-4,5,6,7-tetrahydrothieno[2,3-c]pyridine-2-carboxamide], the IC50 is more than 1000 nM.

For `Cn1cccc1C(=O)N1CCc2cc(C(=O)NO)sc2C1` [Compound 116, N-hydroxy-6-[(1-methyl-1H-pyrrol-2-yl)carbonyl]-4,5,6,7-tetrahydrothieno[2,3-c]pyridine-2-carboxamide], the IC50 was less than 50 nM.

Turning to `Cc1cc(C)n(CC(=O)N2CCc3cc(C(=O)NO)sc3C2)n1` [Compound 125, 6-(2-(3,5-dimethyl-1H-pyrazol-1-yl)acetyl)-N-hydroxy-4,5,6,7-tetrahydrothieno[2,3-c]pyridine-2-carboxamide], the IC50 fell in the range of 50 to 100 nM. Next, `O=C(NO)c1cc2c(s1)CN(C(=O)c1cnn(-c3ccccc3)c1)CC2` [Compound 127, N-hydroxy-6-[(1-phenyl-1H-pyrazol-4-yl)carbonyl]-4,5,6,7-tetrahydrothieno[2,3-c]pyridine-2-carboxamide]: less than 50 nM; `CC(=O)Nc1cc(NC(C)=O)cc(C(=O)N2CCc3cc(C(=O)NO)sc3C2)c1` [Compound 131, 6-[3,5-bis(acetylamino)benzoyl]-N-hydroxy-4,5,6,7-tetrahydrothieno[2,3-c]pyridine-2-carboxamide]: less than 50 nM; `Cc1onc(-c2ccccc2)c1NC(=O)N1CCc2cc(C(=O)NO)sc2C1` [Compound 132, N^2-hydroxy-N^6-(5-methyl-3-phenylisoxazol-4-yl)-4,7-dihydrothieno[2,3-c]pyridine-2,6(5H)-dicarboxamide]: less than 50 nM. Next, `O=C(NO)c1cc2c(s1)CN(C(=O)c1cccc(-n3cccn3)c1)CC2` [Compound 133, 6-(3-(1H-pyrazol-1-yl)benzoyl)-N-hydroxy-4,5,6,7-tetrahydrothieno[2,3-c]pyridine-2-carboxamide]: less than 50 nM; `CC(C)c1ccc(NC(=O)N2CCc3cc(C(=O)NO)sc3C2)cc1` [Compound 139, N^2-hydroxy-N^6-(4-isopropylphenyl)-4,7-dihydrothieno[2,3-c]pyridine-2,6(5H)-dicarboxamide]: less than 50 nM; `O=C(NO)c1cc2c(s1)CN(C(=O)c1cc(F)cc(F)c1)CC2` [Compound 140, 6-(3,5-difluorobenzoyl)-N-hydroxy-4,5,6,7-tetrahydrothieno[2,3-c]pyridine-2-carboxamide]: less than 50 nM. Compound `O=C(NO)c1cc2c(s1)CN(C(=O)c1cscn1)CC2` [Compound 146, N-hydroxy-6-(1,3-thiazol-4-ylcarbonyl)-4,5,6,7-tetrahydrothieno[2,3-c]pyridine-2-carboxamide] had an IC50 of less than 50 nM. Next, `CCn1nc(C)cc1C(=O)N1CCc2cc(C(=O)NO)sc2C1` [Compound 149, 6-[(1-ethyl-3-methyl-1H-pyrazol-5-yl)carbonyl]-N-hydroxy-4,5,6,7-tetrahydrothieno[2,3-c]pyridine-2-carboxamide]: 50 to 100 nM. With `Cc1nc(-c2ccccc2)ncc1C(=O)N1CCc2cc(C(=O)NO)sc2C1` [Compound 152, N-hydroxy-6-[(4-methyl-2-phenylpyrimidin-5-yl)carbonyl]-4,5,6,7-tetrahydrothieno[2,3-c]pyridine-2-carboxamide], the IC50 was less than 50 nM.

`O=C(NO)c1cc2c(s1)CN(C(=O)c1c(F)c(F)cc(F)c1F)CC2` [Compound 156, N-hydroxy-6-(2,3,5,6-tetrafluorobenzoyl)-4,5,6,7-tetrahydrothieno[2,3-c]pyridine-2-carboxamide] showed an IC50 of less than 50 nM. Regarding `Nc1[nH]ncc1C(=O)N1CCc2cc(C(=O)NO)sc2C1` [Compound 159, 6-[(5-amino-1H-pyrazol-4-yl)carbonyl]-N-hydroxy-4,5,6,7-tetrahydrothieno[2,3-c]pyridine-2-carboxamide], the IC50 is less than 50 nM. Turning to `O=C(NO)c1cc2c(s1)CN(C(=O)Nc1ccc(I)cc1)CC2` [Compound 163, N^2-hydroxy-N^6-(4-iodophenyl)-4,7-dihydrothieno[2,3-c]pyridine-2,6(5H)-dicarboxamide], the IC50 was less than 50 nM. Next, `CCCCc1ccc(NC(=O)N2CCc3cc(C(=O)NO)sc3C2)cc1` [Compound 169, N^6-(4-butylphenyl)-N^2-hydroxy-4,7-dihydrothieno[2,3-c]pyridine-2,6(5H)-dicarboxamide]: less than 50 nM. Next, `O=C(NO)c1cc2c(s1)CN(C(=O)c1ccc(C(F)(F)F)cc1)CC2` [Compound 171, N-hydroxy-6-(4-(trifluoromethyl)benzoyl)-4,5,6,7-tetrahydrothieno[2,3-c]pyridine-2-carboxamide]: less than 50 nM; `Cc1cc(C)c(NC(=O)N2CCc3cc(C(=O)NO)sc3C2)c(C)c1` [Compound 176, N^2-hydroxy-N^6-mesityl-4,7-dihydrothieno[2,3-c]pyridine-2,6(5H)-dicarboxamide]: less than 50 nM; `Cc1noc(C)c1C(=O)N1CCc2cc(C(=O)NO)sc2C1` [Compound 177, 6-[(3,5-dimethylisoxazol-4-yl)carbonyl]-N-hydroxy-4,5,6,7-tetrahydrothieno[2,3-c]pyridine-2-carboxamide]: less than 50 nM.

With `Cc1cc(C(=O)N2CCc3cc(C(=O)NO)sc3C2)c(C)o1` [Compound 178, 6-(2,5-dimethyl-3-furoyl)-N-hydroxy-4,5,6,7-tetrahydrothieno[2,3-c]pyridine-2-carboxamide], the IC50 was 50 to 100 nM. In the case of `O=C(NO)c1cc2c(s1)CN(C(=O)c1ccc3ccccc3n1)CC2` [Compound 179, N-hydroxy-6-(quinolin-2-ylcarbonyl)-4,5,6,7-tetrahydrothieno[2,3-c]pyridine-2-carboxamide], the IC50 was less than 50 nM.

In turn, `O=C(NO)c1cc2c(s1)CN(C(=O)c1ccc(F)cc1)CC2` [Compound 182, 6-(4-fluorobenzoyl)-N-hydroxy-4,5,6,7-tetrahydrothieno[2,3-c]pyridine-2-carboxamide] had an IC50 of 50 to 100 nM. Next, `Cc1onc(-c2ccc(F)cc2)c1C(=O)N1CCc2cc(C(=O)NO)sc2C1` [Compound 184, 6-{[3-(4-fluorophenyl)-5-methylisoxazol-4-yl]carbonyl}-N-hydroxy-4,5,6,7-tetrahydrothieno[2,3-c]pyridine-2-carboxamide]: less than 50 nM; `CCc1cc(C(=O)N2CCc3cc(C(=O)NO)sc3C2)n(C)n1` [Compound 186, 6-[(3-ethyl-1-methyl-1H-pyrazol-5-yl)carbonyl]-N-hydroxy-4,5,6,7-tetrahydrothieno[2,3-c]pyridine-2-carboxamide]: less than 50 nM.

The values are drawn from US8624040B2, “Substituted hydroxamic acids and uses thereof” (Millennium Pharmaceuticals, Inc., priority 2009, dated 2014).
